The source of these data is PMC11831592, “Repurposing Linezolid in Conjunction with Histone Deacetylase Inhibitor Access in the Realm of Glioblastoma Therapies” (Journal of Medicinal Chemistry, 2025).

The subject of series [1] is TMZ-resistant GBM cell lines A172R and PT#3R. As to the kind of experiment: MTT cytotoxicity assay, TMZ-resistant GBM lines (statement in words). The series is classed as cell-based. The following applies: 0 to 80 μM, 72 h. The protocol: (§1) We utilized linezolid as the structural foundation to confirm the cytotoxicity of linezolid-conjugated functional domains against glioblastoma (GBM). We combined it with the binding structures of anti-histone deacetylases (HDACs) (denoted as compounds 1–5 and 11–14), antitubulin (compound 6), anticyclooxygenase (COX) (compound 7), and anti-heat shock protein 90 (Hsp90) (compounds 8–10). These constructs were then administered to TMZ-resistant GBM cell lines A172R and PT#3R at concentrations ranging from 0 to 80 μM over 72 h. The cytotoxic effects of these compounds were assessed using the MTT assay (Table 1 and Supporting Information IV). […] Given the remarkable cytotoxicity of compound 1 on both A172-R and PT#3-R TMZ-resistant cells, this study subsequently focused on compound 1 for further in-depth investigation and mechanistic exploration. To validate that the cytotoxic effect of compound 1 on GBM is not attributed to linezolid alone, we separately treated the TMZ-resistant GBM cell line PT#3-R with compound 1 and linezolid. […] This confirms that the cytotoxicity of compound 1 against GBM is primarily attributable to the inhibitory structure of linezolid-conjugated HDAC (Figure 2A). Furthermore, we compared the cytotoxic effects of compound 1 on various wild-type brain tumor cell lines, including U87MG, PT#3, LN229 GBM cells, and CT-2A mouse astrocyte cell line as well as TMZ-resistant variants cell lines, including U87MG-R, PT#3-R, CT-2A-R, and T98G (MGMT-positive). […] Additionally, we further confirmed the efficacy of compound 1 in GBM treatment.
MTT assay was employed to evaluate the cytotoxicity of the synthesized compound against resistant GBM cells. The MTT (3-(4,5-dimethylthiazol-2-yl)-2,5-diphenyltetrazolium bromide, catalog no. AM0818-0005) powder was purchased from BIONOVAS (Ontario, Canada). The MTT was prepared at 10 mg/mL stock with ultrapure water and then stored at −20 °C. […] Finally, 100 μL of the mixture was transferred to measure the OD 595 nm absorbance.
(Tetrazolium assays rely on reduction of a dye to a coloured formazan, in cell work by metabolically active cells.)

For series [2], the system named is A172-R TMZ-resistant GBM cell line. As to the kind of experiment: MTT cytotoxicity assay, A172-R. The series is classed as cell-based. To be noted: Homo sapiens, 72 h. As to the method: as §1
(§2) MTT assay was employed to evaluate the cytotoxicity of the synthesized compound against resistant GBM cells. The MTT (3-(4,5-dimethylthiazol-2-yl)-2,5-diphenyltetrazolium bromide, catalog no. AM0818-0005) powder was purchased from BIONOVAS (Ontario, Canada). The MTT was prepared at 10 mg/mL stock with ultrapure water and then stored at −20 °C. All cells were seeded 2.5 × 10^4 per well in the 24-well plate for 24 h, followed by treating at different concentrations of compounds for 72 h. Before the experiment, the MTT stock was 10-fold diluted with the culture medium and then incubated with cells for 30 min. After the incubation, the MTT medium was discarded and added 300 μL of dimethyl sulfoxide (DMSO, cat. no. D2650, Sigma-Aldrich, MO, USA) to dissolve the cells. Finally, 100 μL of the mixture was transferred to measure the OD 595 nm absorbance.

In series [3] the test system is PT#3-R TMZ-resistant GBM cell line. The experiment in a line: cells. The series is classed as cell-based. The following applies: MTT; for IC50: Homo sapiens, 72 h. The protocol: The cytotoxic effects of these compounds were assessed using the MTT assay (Table 1 and Supporting Information IV).
as §2, with “All cells were seeded 2.5 × 10^4 per well in the 24-well plate for 24 h, followed by treating at different concentrations of compounds for 72 h.” left out, “cells.” for “cells. Finally, 100 μL of the mixture was transferred to measure the OD 595 nm absorbance.”

For series [4], the target named is T1, HDAC1 (Homo sapiens, UniProt Q13547).
T1 construct: purchased Reaction Biology Corporation, Malvern, PA (contract assay service)
The experiment in a line: HDAC enzyme inhibition assay, HDAC1. It is filed as biochemical. To be noted: 10-dose, 3-fold serial dilution starting at 10 μM. As to the method: (§3) Enzyme inhibition assays were performed by the Reaction Biology Corporation, Malvern, PA (http://www.reactionbiology.com).

Series [5] deals with T2, HDAC6 (Homo sapiens, UniProt Q9UBN7).
T2 construct: purchased Reaction Biology Corporation, Malvern, PA (contract assay service)
T2 sequence (Q9UBN7 1-1215): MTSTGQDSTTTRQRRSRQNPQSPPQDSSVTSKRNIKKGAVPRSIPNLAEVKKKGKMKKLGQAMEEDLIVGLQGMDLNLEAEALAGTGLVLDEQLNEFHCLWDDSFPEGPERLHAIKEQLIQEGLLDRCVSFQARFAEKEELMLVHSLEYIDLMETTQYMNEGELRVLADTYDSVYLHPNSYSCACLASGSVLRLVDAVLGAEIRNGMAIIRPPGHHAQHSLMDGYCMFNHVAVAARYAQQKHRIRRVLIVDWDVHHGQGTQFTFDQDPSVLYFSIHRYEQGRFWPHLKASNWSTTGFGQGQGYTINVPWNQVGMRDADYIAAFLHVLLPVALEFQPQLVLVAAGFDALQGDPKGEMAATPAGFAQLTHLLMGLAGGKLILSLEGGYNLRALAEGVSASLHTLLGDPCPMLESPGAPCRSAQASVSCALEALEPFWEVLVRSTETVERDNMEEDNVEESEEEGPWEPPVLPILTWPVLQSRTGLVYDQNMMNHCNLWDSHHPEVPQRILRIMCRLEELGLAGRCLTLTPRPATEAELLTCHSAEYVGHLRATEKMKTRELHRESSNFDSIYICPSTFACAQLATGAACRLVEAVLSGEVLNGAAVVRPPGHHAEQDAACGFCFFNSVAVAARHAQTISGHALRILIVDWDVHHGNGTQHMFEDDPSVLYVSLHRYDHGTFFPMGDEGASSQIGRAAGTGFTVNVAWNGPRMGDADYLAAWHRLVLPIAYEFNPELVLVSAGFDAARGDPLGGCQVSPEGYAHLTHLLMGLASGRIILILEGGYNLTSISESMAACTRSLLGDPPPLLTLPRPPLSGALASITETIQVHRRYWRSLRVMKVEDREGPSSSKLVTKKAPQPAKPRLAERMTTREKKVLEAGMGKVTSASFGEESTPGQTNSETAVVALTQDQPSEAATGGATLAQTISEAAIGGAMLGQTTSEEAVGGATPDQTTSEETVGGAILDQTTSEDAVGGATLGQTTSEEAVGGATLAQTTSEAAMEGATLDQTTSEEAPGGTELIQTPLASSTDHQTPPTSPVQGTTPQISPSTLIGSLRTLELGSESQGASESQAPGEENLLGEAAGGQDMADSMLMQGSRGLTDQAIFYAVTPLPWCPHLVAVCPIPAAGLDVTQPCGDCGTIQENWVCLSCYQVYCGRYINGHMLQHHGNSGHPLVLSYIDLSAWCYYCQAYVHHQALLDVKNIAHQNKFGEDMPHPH
The experiment in a line: HDAC enzyme inhibition assay, HDAC6. To be noted: 10-dose, 3-fold serial dilution starting at 10 μM. It is filed as biochemical. As to the method:
as §3

Series [6] deals with T3, HDAC8 (Homo sapiens, UniProt Q9BY41).
T3 construct: purchased Reaction Biology Corporation, Malvern, PA (contract assay service)
T3 sequence (Q9BY41 1-377): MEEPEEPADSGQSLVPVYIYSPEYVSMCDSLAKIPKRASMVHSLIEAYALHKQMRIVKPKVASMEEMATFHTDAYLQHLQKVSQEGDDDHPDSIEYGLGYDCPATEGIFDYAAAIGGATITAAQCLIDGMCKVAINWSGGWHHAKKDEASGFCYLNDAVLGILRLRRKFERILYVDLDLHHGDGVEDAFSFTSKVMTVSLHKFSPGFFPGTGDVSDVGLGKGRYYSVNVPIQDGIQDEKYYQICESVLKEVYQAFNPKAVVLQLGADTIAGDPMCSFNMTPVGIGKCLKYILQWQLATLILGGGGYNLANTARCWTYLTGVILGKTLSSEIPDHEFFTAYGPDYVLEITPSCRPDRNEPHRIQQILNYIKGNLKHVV
The experiment in a line: HDAC enzyme inhibition assay, HDAC8. The series is classed as biochemical. The following applies: 10-dose, 3-fold serial dilution starting at 10 μM. The protocol:
as §3

Series [7] addresses T4, HDAC2 (Homo sapiens, UniProt Q92769).
T4 construct: purchased Reaction Biology Corporation, Malvern, PA (contract assay service)
As to the kind of experiment: HDAC enzyme inhibition assay, HDAC2. The series is classed as biochemical. The following applies: 10-dose, 3-fold serial dilution starting at 10 μM. As to the method:
as §3

For series [8] the following is noted: within 5–7 h; cited from earlier work.
On the set-up of series [9]: method as in PMID 36921275. To be noted: meningitis patients; cited from earlier work.
Series [10] deals with GBM. The arrangement: method as in PMID 31505812. To be noted: GBM patients, vs 12.7 months; cited from earlier work.

T4 sequence (Q92769 whole entry): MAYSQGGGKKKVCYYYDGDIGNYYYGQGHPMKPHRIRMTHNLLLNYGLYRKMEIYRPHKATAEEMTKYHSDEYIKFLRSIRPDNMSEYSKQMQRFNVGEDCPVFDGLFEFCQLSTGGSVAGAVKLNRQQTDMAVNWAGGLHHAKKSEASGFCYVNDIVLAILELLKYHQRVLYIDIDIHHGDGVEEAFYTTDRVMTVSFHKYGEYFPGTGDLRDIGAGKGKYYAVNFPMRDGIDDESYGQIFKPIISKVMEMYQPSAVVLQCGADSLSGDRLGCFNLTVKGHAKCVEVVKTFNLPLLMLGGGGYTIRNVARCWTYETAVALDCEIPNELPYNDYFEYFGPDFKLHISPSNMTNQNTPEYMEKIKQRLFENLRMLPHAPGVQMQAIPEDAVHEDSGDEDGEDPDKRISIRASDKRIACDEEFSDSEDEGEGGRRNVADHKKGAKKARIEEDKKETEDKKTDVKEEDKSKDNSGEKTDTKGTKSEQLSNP
T1 sequence (Q13547 whole entry): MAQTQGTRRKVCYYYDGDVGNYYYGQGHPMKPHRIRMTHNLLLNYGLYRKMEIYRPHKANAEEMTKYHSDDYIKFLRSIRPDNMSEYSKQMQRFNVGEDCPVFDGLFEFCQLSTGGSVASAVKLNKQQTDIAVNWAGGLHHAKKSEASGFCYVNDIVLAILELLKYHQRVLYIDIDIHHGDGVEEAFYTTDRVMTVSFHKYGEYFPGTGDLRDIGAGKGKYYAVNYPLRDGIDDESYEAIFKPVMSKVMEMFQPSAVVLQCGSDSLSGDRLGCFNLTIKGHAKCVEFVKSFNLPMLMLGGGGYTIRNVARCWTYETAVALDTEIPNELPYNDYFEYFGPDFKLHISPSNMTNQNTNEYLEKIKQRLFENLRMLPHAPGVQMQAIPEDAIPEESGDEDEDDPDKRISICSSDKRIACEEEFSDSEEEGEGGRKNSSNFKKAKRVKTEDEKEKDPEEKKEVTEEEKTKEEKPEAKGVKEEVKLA

As usually defined, the IC50 is the midpoint of a concentration-inhibition curve. Higher therefore signals lower potency. As to `CC(C)c1cc(C(=O)N(C)C[C@H]2CN(c3ccc(N4CCOCC4)c(F)c3)C(=O)O2)c(O)cc1O` [compound 9, (S)-N-((3-(3-Fluoro-4-morpholinophenyl)-2-oxooxazolidin-5-yl)methyl)-2,4-dihydroxy-5-isopropyl-N-methylbenzamide], in [1], the “cytotoxicity in TMZ-resistant GBM” value was “exhibited the capacity to induce cytotoxicity”. In addition, the IC50 in series [2] was determined as 35.6 ± 4.64 µM; in [3] it was 15.3 ± 2.1 µM.
With `O=C(NO)c1ccc(CNC[C@H]2CN(c3ccc(N4CCOCC4)c(F)c3)C(=O)O2)cc1` [compound 3, (S)-4-((((3-(3-Fluoro-4-morpholinophenyl)-2-oxooxazolidin-5-yl)methyl)amin-o)methyl)-N-hydroxybenzamide], the IC50 is more than 10 µM in series [4]; 0.061 µM in series [5]; 0.938 µM in series [6]; more than 10 µM in series [7]; 114 ± 20.8 µM in series [3].
`O=C(CCCCCCC(=O)NC[C@H]1CN(c2ccc(N3CCOCC3)c(F)c2)C(=O)O1)NO` [compound 2, (S)-N1-((3-(3-Fluoro-4-morpholinophenyl)-2-oxooxazolidin-5-yl)methyl)-N8-hydroxyoctanediamide]: the 50% inhibitory concentration (IC50) stood at 3.37 µM in series [4]; 0.304 µM in [5]; 1.11 µM in series [6]; 6.43 µM in [7]; 164 ± 41.5 µM in [3].
`Nc1ccccc1NC(=O)c1ccc(CNC[C@H]2CN(c3ccc(N4CCOCC4)c(F)c3)C(=O)O2)cc1` [compound 4, (S)-N-(2-Aminophenyl)-4-((((3-(3-fluoro-4-morpholinophenyl)-2-oxooxazolidin-5-yl)methyl)amino)methyl)benzamide]: the concentration for half-maximal inhibition (IC50) is 0.979 µM in series [4], 2.02 µM in series [7], 19 ± 2.53 µM in series [2] and 41.4 ± 5.01 µM in series [3]. Further, in series [1], the “cytotoxicity in TMZ-resistant GBM” value is “exhibited the capacity to induce cytotoxicity”.
On to `CC(=O)NC[C@H]1CN(c2ccc(N3CCOCC3)c(F)c2)C(=O)O1` [linezolid, (S)-N-((3-(3-Fluoro-4-morpholinophenyl)-2-oxooxazolidin-5-yl)methyl)acetamide], for which the “cytotoxicity in resistant GBM cells” value in [3] (80 to 100 μM) is listed as “did not induce cytotoxicity”. Further, the “excreted in its original form in urine” value in [8] was 30%. For the same compound, the “penetration between blood and cerebrospinal fluid” value in [9] is given as “more than 70%”.
As to `CCN(C[C@H]1CN(c2ccc(N3CCOCC3)c(F)c2)C(=O)O1)C(=O)c1cc(C(C)C)c(O)cc1O` [compound 10, (S)-N-((3-(3-Fluoro-4-morpholinophenyl)-2-oxooxazolidin-5-yl)methyl)-2,4-dihydroxy-5-isopropyl-N-ethylbenzamide], the IC50 in series [2] came out at 80.6 ± 9.99 µM; in [3], 48.8 ± 4.77 µM.
On to `O=C(/C=C/c1cccc(S(=O)(=O)NC[C@H]2CN(c3ccc(N4CCOCC4)c(F)c3)C(=O)O2)c1)NO` [compound 5, (R,E)-3-(3-(N-((3-(3-Fluoro-4-morpholinophenyl)-2-oxooxazolidin-5-yl)methyl)su-lfamoyl)phenyl)-N-hydroxyacrylamide], for which the IC50 in series [4] stood at 0.735 µM; in [5], 0.095 µM; in [6] it was 0.803 µM; in series [7] it was 1.66 µM; in series [3] it was 124 ± 17.5 µM.
On to `O=C(NC[C@H]1CN(c2ccc(N3CCOCC3)c(F)c2)C(=O)O1)c1cc(Cl)ccc1O` [compound 7, (S)-5-Chloro-N-((3-(3-fluoro-4-morpholinophenyl)-2-oxooxazolidin-5-yl)methyl)-2-hydroxybenzamide], for which the IC50 is 224 ± 80.3 µM in series [2] and 52.1 ± 6.26 µM in series [3].
With `CC(C)c1cc(C(=O)NC[C@H]2CN(c3ccc(N4CCOCC4)c(F)c3)C(=O)O2)c(O)cc1O` [compound 8, (S)-N-((3-(3-Fluoro-4-morpholinophenyl)-2-oxooxazolidin-5-yl)methyl)-2,4-dihydroxy-5-isopropylbenzamide], the IC50 came out at 65.2 ± 11.2 µM in [2] and 58 ± 6.23 µM in [3].
As to `Cn1nnc2c(C(N)=O)ncn2c1=O` [TMZ, temozolomide], in series [10], the overall survival is 21.7 months.
